Patent US11976074B1, “Crystalline salts of Linsitinib” (Sling Therapeutics, Inc., priority 2023, dated 2024)
In brackets after ≈: the same amount, converted by molar mass.

Tests used:
[1] = Heating experiments with selected malate samples; type: physicochemical
Description: Based on the thermal data, Malate 4 and Malate 5 were heated at […] for 15 minutes. The solids were re-analyzed by PXRD after heating to investigate any form change upon dehydration. […] While there was an insufficient amount of sample to further characterize Malate 7, based on the conditions upon which it was generated, it could be a lower hydrate or an anhydrous form.

[2] = Water activity boundary between malate forms; type: physicochemical; details: or 90% relative humidity
Description: Malate 2, Malate 4, and Malate 5 were all obtained from high water activity conditions and are suspected to be hydrated forms. Based on the weight loss in the TG thermograms of Malate 4 and Malate 5, they could be di-hydrates. The water activity boundary between Malate 4 and Malate 1 was determined to be approximately 0.9 water activity, or 90% relative humidity. At a water activity of 0.8, Malate 1 was obtained; however, there were additional peaks present by PXRD. […]

[3] = Thermogravimetric analysis (TGA); type: physicochemical; details: start to 65° C.
Description: The TG analysis was carried out using a TA Instruments […] Discovery Series instrument. The instrument balance was calibrated using class M weights and the temperature calibration was performed using alumel. The nitrogen purge was 10 mL per minute at the balance and 25 mL per minute at the furnace. The sample was placed into a pre-tared platinum pan and heated from approximately 25° C. to 300° C. at a rate of 10° C. per minute.

[4] = Polymorph screen of linsitinib malate (PXRD/XRPD result); type: physicochemical; details: polymorph screen of linsitinib malate; slurry, cooling, precipitation or lyophilization; solvent and conditions per sample no.; listed as 4-10
Description: A Rigaku SmartLab X-Ray Diffractometer was configured in Bragg-Brentano reflection geometry equipped with a beam stop and knife edge to reduce incident beam and air scatter.
A polymorph screen of linsitinib malate was conducted. Experiments were designed to target thermodynamically stable forms and therefore utilized techniques such as long-term slurry, cooling, anti-solvent addition, and evaporation. Reaction crystallization experiments with linsitinib free base and L-malic acid were also conducted. Additionally, non-crystalline material was used as an alternative starting material as this can provide access to polymorphs that would not be accessible from crystalline starting material.

[5] = pH-solubility of linsitinib free base and selected salts (pH 1.5 to 6.5, overnight equilibration, HPLC); type: physicochemical; details: for solubility: aqueous solution, thermodynamic from solid, overnight equilibration, read-out: Solubility; for Final pH: after overnight equilibration
Description: The pH-solubility of selected salts (Phosphate 1, L-Malate 1, Esylate 1, and Esylate 2) was evaluated and compared with linsitinib free base. The solubility analysis was conducted in a manner consistent with a previous study that was performed with linsitinib free base. Aqueous solutions were prepared between pH 1.5 and pH 6.5 in 0.5 pH unit increments via titration of the solution using NaOH and HCl. For each salt or the free base, an attempt was made to reach saturation in each of the solutions by adding sufficient material to the solution such that excess solids remained. If saturation was achieved, the pH of the solution was measured and adjusted to the target pH and additional material was added if needed. The samples were then equilibrated overnight. The final pH of the solution was measured, the solids were filtered and selected samples were analyzed by PXRD. The concentration of linsitinib in the filtrate was quantitated by HPLC (diluted as needed). In some cases, significant drift (+1 pH unit or more) of the final pH from the target pH was observed after the overnight equilibration.
The pH-solubility data is shown graphically in FIG. 89. […] Indeed, it should be noted that in the majority of the low pH systems, higher initial dissolution/solubility was observed followed by precipitation of the material from solution upon longer equilibration.

[6] = Equilibrium solubility in bio-relevant media (FaSSGF pH 1.6, FaSSIF pH 6.5); type: physicochemical; details: for Solubility compared with the free base: in words; for solubility: thermodynamic from solid, read-out: Solubility
From the text: In addition to the pH-solubility data, a comparison of the equilibrium solubility of linsitinib free base and salts in two bio-relevant media (Table 28), fasted state simulated gastric fluid (FaSSGF pH 1.6) and intestinal fluid (FaSSIF pH 6.5) was completed. […] A saturated solution of Esylate 1 was not achieved during this study and therefore the equilibrium solubility could be higher than determined. It should be noted that variability of almost a full pH unit was noted among the samples making a direct comparison more challenging.

[7] = cited from earlier work
[8] = cited from earlier work; remark: listed apart in the source
[9] = pH 4, aqueous buffer, target pH 4.0, * = clear solution, not equilibrium value
[10] = pH 4.5, aqueous buffer, target pH 4.5, * = clear solution, not equilibrium value
[11] = pH 5, aqueous buffer, target pH 5.0
[12] = pH 5.5, aqueous buffer, target pH 5.5
[13] = pH 6, aqueous buffer, target pH 6.0
[14] = pH 6.5, aqueous buffer, target pH 6.5
[15] = pH adjusted with NaOH and HCl, pH 1.5, aqueous buffer, target pH 1.5, * = clear solution, not equilibrium value
[16] = pH adjusted with NaOH and HCl, pH 2, aqueous buffer, target pH 2.0, * = clear solution, not equilibrium value
[17] = pH adjusted with NaOH and HCl, pH 2.5, aqueous buffer, target pH 2.5, * = clear solution, not equilibrium value
[18] = pH adjusted with NaOH and HCl, pH 3, aqueous buffer, target pH 3.0, * = clear solution, not equilibrium value
[19] = pH adjusted with NaOH and HCl, pH 3.5, aqueous buffer, target pH 3.5, * = clear solution, not equilibrium value
[20] = fasted state simulated gastric fluid (FaSSGF), pH 1.6, fassgf or other biorelevant, FaSSGF (pH 1.6)
[21] = fasted state simulated intestinal fluid (FaSSIF), pH 6.5, fassif, FaSSIF (pH 6.5)

Row | Compound | Water activity boundary between Malate 4 and Malate 1 [2] | solubility [5, 9] | solubility [5, 10] | solubility [5, 11] | solubility [5, 12] | solubility [5, 13] | solubility [5, 14] | solubility [5, 15] | solubility [5, 16] | solubility [5, 17] | solubility [5, 18] | solubility [5, 19] | Final pH ([5]; target pH 1.5) | Final pH ([5]; target pH 2.0) | Final pH ([5]; target pH 2.5) | Final pH ([5]; target pH 3.0) | Final pH ([5]; target pH 3.5) | Final pH ([5]; target pH 4.0) | Final pH ([5]; target pH 4.5) | Final pH ([5]; target pH 5.0) | also measured
1 | C[C@]1(O)C[C@@H](c2nc(-c3ccc4ccc(-c5ccccc5)nc4c3)c3c(N)nccn32)C1.O=C(O)C[C@H](O)C(=O)O [Malate 4] | approximately 0.9 water activity | – | – | – | – | – | – | – | – | – | – | – | – | – | – | – | – | – | – | – | XRPD result after heating ([1]; 92° C., 15 min): Malate 7; Form change upon heating (PXRD) ([1]; heated for 15 minutes): dehydrate to a new form, designated as Malate 7; TGA Results (weight loss) [3]: 7.3%, start to 65 °C; PXRD Results [4]: Malate 4
2 | C[C@]1(O)C[C@@H](c2nc(-c3ccc4ccc(-c5ccccc5)nc4c3)c3c(N)nccn32)C1.O=C(O)C[C@H](O)C(=O)O [L-Malate 1] | approximately 0.9 water activity | 1340 µg/mL | 337 µg/mL | 274 µg/mL | 192 µg/mL | 122 µg/mL | 16.5 µg/mL | 82300 µg/mL | 74000 µg/mL | 39000 µg/mL | 15300 µg/mL | 4290 µg/mL | 1.45 | 2.02 | 2.37 | 2.80 | 3.08 | 3.38 | 5.05 | 5.16 | Solubility compared with the free base or Phosphate 1 ([5]; lower pH (<3)): significantly higher solubility; Final pH ([5]; target pH 5.5): 5.32; Final pH ([5]; target pH 6.0): 5.50; Final pH ([5]; target pH 6.5): 5.18; Final pH ([6]; FaSSGF (pH 1.6)): 2.97; Solubility compared with the free base ([6]; FaSSGF (pH 1.6)): largely comparable; Final pH ([6]; FaSSIF (pH 6.5)): 5.46; Solubility compared with the free base ([6]; FaSSIF (pH 6.5)): higher solubility than the free base; solubility [6, 20]: 8130 µg/mL; solubility [6, 21]: 44 µg/mL
3 | C[C@]1(O)C[C@@H](c2nc(-c3ccc4ccc(-c5ccccc5)nc4c3)c3c(N)nccn32)C1 [Linsitinib free base, Cis-3-[8-amino-1-(2-phenyl-7-quinolinyl)imidazo[1,5-a]pyrazin-3-yl]-1-methyl-cyclobutanol, reference compound] | – | 116 µg/mL | 5.1 µg/mL | 1.2 µg/mL | 1.7 µg/mL | 1 µg/mL | 1.2 µg/mL | 54000 µg/mL | 23600 µg/mL | 17600 µg/mL | 15000 µg/mL | 1730 µg/mL | 1.52 | 2.04 | 2.33 | 2.76 | 3.64 | 4.18 | 5.54 | 6.18 | Final pH ([5]; target pH 5.5): 6.43; Final pH ([5]; target pH 6.0): 7.02; Final pH ([5]; target pH 6.5): 6.43; Final pH ([6]; FaSSGF (pH 1.6)): 4.04; Final pH ([6]; FaSSIF (pH 6.5)): 6.57; solubility [6, 20]: 7670 µg/mL (≈ 18.2 mM); solubility [6, 21]: 25 µg/mL (≈ 0.0593 mM); Hygroscopicity ([7]; anhydrous/non-solvated free base form): non-hygroscopic; Solubility under acidic conditions [7]: good solubility; Permeability [8]: good permeability
